Format in all cases: physicochemical
Series [1] is described as follows: Injection and detection with small tip angle (product relaxation lifetime). The note with it: 15° tip angle, 6 consecutive spectra in the magnet, 1.6 s delay. As to the method:
In addition to using a 90° pulse-acquire sequence for detection after injection, experiments using small tip angles (15° or 11.25°) were conducted to acquire a series of detection within a short time window (˜10 s), and to use that information to determine the relaxation lifetime of different spin orders of the hyperpolarized product.
FIG. 9, panel a: magnetization of ^15N-enriched tetrazine 1a is first hyperpolarized at 0.4 μT, then a solution of 2 in methanol-d4 is injected (as described in Example 4). Then, the sample is manually transferred as quickly as possible into the magnet, using 15° tip angle to acquire 6 spectra consecutively, with a 1.6 s delay between each acquisition. […] Panel b: singlet spin order of ^15N-enriched tetrazine 1a is first hyperpolarized at 0.3 mT, then a solution of 2 in methanol-d4 is injected (as described in Example 4). Then, the sample is manually transferred as quickly as possible into the magnet, using 11.25° tip angle to acquire 6 spectra consecutively, with a 1.6 s delay between each acquisition. […] Panels c-e: relaxation constant measurements of the hyperpolarized product magnetization, hyperpolarized ^15N2 gas, and hyperpolarized product singlet. The product magnetization has T1 lifetime of ˜6.9 s.

Series [2] is described as follows: Hyperpolarization then cycloaddition with cyclooctyne 2: enhancement and lifetime of products. The note with it: methanol-d4; for signal enhancement over thermal spectra, product anti-phase (singlet) signal: tetrazine scalar order hyperpolarized at 0.3 mT, then 2 injected. The source says:
For the hyperpolarization of the cycloaddition products 3a and 3b, a solution of tetrazine (1a or 1b, respectively), pyridine, and Ir catalyst in methanol-d4 was first hyperpolarized at 0.4 μT or 0.3 mT, depending on which spin order was studied (solution preparation and hyperpolarization procedure described above in Example 4). After hyperpolarization, the para-H2 gas flow was stopped and the pressure was released through the exhaust outlet, after which the injection valve (shown in FIG. 5) was quickly opened to inject a solution of cyclooctyne 2 (4.5 mM) in methanol-d4 (200 μL) (equiv of tetrazine:2=1.0:1.5). Injection was completed in less than 1 second, and the sample was shaken for 3 seconds to reach complete reaction, visually evidenced by the color change from pink (i.e., the color of the tetrazine) to transparent. The sample was then manually transferred to an 8.5 T spectrometer for product signal read out.
Upon the cycloaddition reaction, a noticeable difference in chemical shift is observed on both nitrogen atoms (i.e., N1 and N2 in 1a vs. N1′ and N2′ in 3a). […] Hyperpolarized 3a and ^15N2 are observed. FIG. 3, panels c, e, and g show representative T1 or Ts decay measurements for product 3a magnetization, 3a singlet order, and 3b singlet order, respectively. […] FIG. 3, panels d, f, and h show lifetime measurement data, exponential fit of the data, and calculated T1 or Ts values for product 3a magnetization, 3a singlet order, and 3b singlet order, respectively. In the hyperpolarization-cycloaddition experiments, para-hydrogen was bubbled into a solution of ^15N4-1,2,4,5-tetrazine 1a or 1b (1.5 mM), pyridine (1.0 mM), and Ir(COD)(IMes)Cl (0.15 mM) in methanol-d4 (400 uL), then a solution of 2 (1.5 equivalents) in methanol-d4 (200 μL) was added. The sample was held at 0.3 mT for a variable amount of time before transport to the magnet for detection.

The nature of series [3]: Hyperpolarization in aqueous media (3:1 methanol-d4:D2O, about 50° C.). As to the method: One important aspect of our bioorthogonal reaction-promoted hyperpolarization approach is the ability to exploit this scheme using an aqueous solvent, which is critical for many biological reactions and would widely broaden the applicability of this strategy. […] The best results were achieved using a 3:1 methanol-d4:D2O mixture and by elevating the temperature to about 50° C. using a water bath while bubbling para-H2 through the solution.
A solution of 2 was prepared in the same 3:1 methanol-d4:D2O mixed solvent and was injected after the hyperpolarization was established for the precursor tetrazine.

Series [4] in a line: SABRE-SHEATH hyperpolarization of 15N4-1,2,4,5-tetrazines in methanol-d4. The protocol: Unless otherwise described, a solution of ^15N-enriched tetrazine (1a or 1b, 1.5 mM), pyridine (1.0 mM), and Ir(IMes)(COD) Cl (0.15 mM) in methanol-d4 (400 μL) was prepared. Note: IMes=1,3-bis(2,4,6-trimethylphenyl) imidazol-2-ylidene; COD=1,5-cyclooctadiene.
The Ir catalyst was pre-activated by bubbling para-H2 through a solution of tetrazine, pyridine, and Ir catalyst (sample preparation described above) for 30 minutes. Following pre-activation, the tetrazine was hyperpolarized, either magnetization or singlet order.
To hyperpolarize magnetization, the solution was placed inside the magnetic shield, with the magnetic field adjusted to 0.4 μT (using a solenoid of 430 mm with 205 turns and a voltage of 7.5 V across 11.4 kOhms). After 3 minutes' bubbling of para-H2, the gas flow was stopped and the sample was manually transferred from the low field to an 8.5 T spectrometer for signal read out as quickly as possible. This manual transfer takes ˜8 seconds, and a 90° pulse-acquire sequence was used for read out.
To hyperpolarize singlet, the sample was placed at a magnetic field of 0.3 mT and para-H2 was bubbled through the solution for 3 minutes. As described in the above procedure, the sample was then manually transferred to an 8.5 T spectrometer as quickly as possible and detected using a 90° pulse-acquire sequence.
Depending on the magnetic field at which hyperpolarization was induced, in-phase signal (magnetization) or anti-phase signal (singlet) was observed. Enhancement values (ε) and polarization levels (p) were obtained by comparison of the hyperpolarized spectrum to a thermal reference spectrum of the respective ^15N4-1,2,4,5-tetrazine. […] Measurement at 0.3 mT. Sample as a solution of ^15N4-1,2,4,5-tetrazine (1.5 mM), pyridine (1.0 mM), and Ir(COD)(IMes)Cl (0.15 mM) in methanol-d4 (400 uL).
Hyperpolarization of 1a and 1b was examined by standard SABRE-SHEATH procedure, as reported by Theis et al. (“Direct and cost-efficient hyperpolarization of long-lived nuclear spin states on universal ^15N2-diazirine molecular tags,” Sci. Adv. 2, e1501438 (2016)). Two different hyperpolarized states for ^15N4-1,2,4,5-tetrazine 1a were observed, depending upon the chosen magnetic field at which the para-hydrogen gas is applied to the sample (FIG. 2b). At very low magnetic fields (˜0.4 μT), the ^15N spin pairs of the tetrazine are hyperpolarized in the triplet states and display in-phase signal upon detection at 8.45 T (i.e., magnetization is hyperpolarized). Conversely, at a relatively broad range of slightly elevated magnetic fields (˜0.2 mT<B<˜50 mT), anti-phase signals are observed after a 90° pulse. In this case, scalar order is hyperpolarized in the tetrazine spin pairs, associated with singlet states on ^15N-spin pairs; upon transfer to high magnetic field for detection, this scalar order is transformed into anti-aligned magnetization (I⋅S is adiabatically converted to Iz-Sz).

Series [5] in a line: Dilution effect on hyperpolarization (injection of pure methanol-d4). The note with it: 200 μL methanol-d4 injected; singlet order at 0.3 mT. As to the method:
To observe the effect of simple dilution on hyperpolarization, pure methanol-d4 was injected into a solution of hyperpolarized tetrazine to obtain a diluted hyperpolarized signal as follows: tetrazine 1a was hyperpolarized singlet order at 0.3 mT and the spectra were acquired (as described in Example 4). The sample was again bubbled with para-H2 for 3 minutes at 0.3 mT, then the pressure was released and the injection valve was opened, after which 200 μL of methanol-d4 was quickly injected and the sample was manually transferred into the magnet to read out the signal (detailed in Example 4, but with the key difference: pure methanol-d4 used instead of a solution of 2 in methanol-d4). […] The signal observed was about half of the signal before addition.

Series [6] is described as follows: Concentration dependence of tetrazine hyperpolarization (enhancement and lifetime). The note with it: for T1 / Ts: decay at 0.3 mT. As to the method:
Using serial dilution, solutions of tetrazine 1a, pyridine, and Ir catalyst in methanol-d4 (400 μL) were prepared at different concentrations, but in the same ratio of each component: • (i) 1a (7.5 mM), pyridine (5.0 mM), and Ir(IMES)(COD)Cl (0.75 mM) • (ii) 1a (3.8 mM), pyridine (2.5 mM), and Ir(IMES)(COD)Cl (0.38 mM) • (iii) 1a (1.5 mM), pyridine (1.0 mM), and Ir(IMES)(COD)Cl (0.15 mM) (i.e., default concentrations of solution used in all other experiments) • (iv) 1a (0.60 mM), pyridine (0.40 mM), and Ir(IMES)(COD)Cl (0.060 mM)
For the rest of this section, samples are referred to by the concentration of tetrazine 1a comprising the solution. As described above, either magnetization or singlet tetrazine hyperpolarization was developed following pre-activation of the catalyst. After bubbling para-H^2 through the sample, the sample was transferred to 0.3 mT for a variable period of time. Following this delay, the sample was transported to the magnet and the spectrum was immediately recorded with a 90° pulse-acquire sequence. Triplet magnetization signal was deconvoluted from singlet signal, and fitted to a single exponential decay. Results are shown below in Table 1 and graphically in FIGS. 6a and 6b.

The nature of series [7]: Kinetic characterization of tetrazine/cyclooctyne reaction. The note with it: 1.5 mM tetrazine, 1.5 equivalent of 2, CD3OD. As to the method:
Emulating hyperpolarization conditions (below), a 1.5 mM solution of 1c (1 equivalent) in CD3OD (400 μL) was added to an NMR tube. To this solution, a 4.5 mM solution of 2 (1.5 equivalent) in CD3OD (200 μL) was added and the NMR tube was shaken vigorously. Immediately upon addition, the color of the solution changed from pink (due to the pink color of the tetrazine 1c) to colorless. As soon as the pink color completely dissipated (<2 seconds), the sample was placed into the NMR and a spectrum was acquired. The upper trace represents 1c and the lower trace represents 3c, i.e., the product of the cycloaddition reaction.

Setting [8] is: at 0.3 mT, 1.5 mM in methanol-d4.
Where [9] appears, read: tetrazine concentration 0.60 mM.
Where [10] appears, read: tetrazine concentration 3.75 mM.
Setting [11] is: 3:1 methanol-d4:D2O, about 50° C.

With `OC[C@H]1[C@H]2CCc3c(c[15n][15n]c3-c3ccccc3)CC[C@@H]12` (racemic) [3a, (1-Phenyl-6,6a,7,7a,8,9-hexahydro-5H-cyclopropa[5,6]cycloocta[1,2-d]pyridazin-7-yl-2,3-15N2)methanol], the “product magnetization T1 lifetime” value in series [1] was about 6.9 s. In series [2] (held at 0.3 mT), the “lifetime Ts of product” value came out at 13 ± 2 s and the “magnetization lifetime T1 of product” value was found to be 13 ± 4 s. In series [2] (tetrazine magnetization hyperpolarized at 0.4 μT, then 2 added at 0.3 mT), the “enhancement over thermal spectra, hyperpolarized product magnetization” value was determined as 540 fold. Besides, the “signal enhancement over thermal spectra, product anti-phase (singlet) signal” value in series [2] came to 140 fold. In series [3] (3:1 CD3OD:D2O, 50° C.), the “hyperpolarized signal from cycloaddition product” value was “detected the hyperpolarized signal”.
Consider `c1ccc(-c2[15n][15n]c[15n][15n]2)cc1` [1a, 3-Phenyl-1,2,4,5-tetrazine-1,2,4,5-^15N4], for which the “lifetime of scalar order relative to magnetization” value in series [4] (at 0.3 mT) was “about 2 times”. In series [4] (setting [8]), the “magnetization relaxation constant T1” value came out at 1.4 ± 0.1 min and the “relaxation constant of the scalar order of the 15N spin pairs, Ts” value stood at 2.7 ± 0.3 min. The “signal enhancement over 8.45 T thermal measurements” value in series [4] (tetrazine 1.5 mM, pyridine 1.0 mM, Ir(COD)(IMes)Cl 0.15 mM in methanol-d4) was “up to 3,000 fold”. Moreover, the “hyperpolarized singlet signal after dilution relative to signal before addition” value in series [5] is listed as “about half”. In series [6] (setting [9]), the “Singlet enhancement at 0 s delay (normalized to 1.5 mM singlet, %)” value was 96%; the “Z-Magnetization enhancement at 0 s delay (normalized to 1.5 mM Z-magnetization, %)” value is on record as 130%; the T1 amounted to 74 s; the Ts was found to be 357 s. In addition, in series [6] (tetrazine concentration 1.5 mM), the “Singlet enhancement at 0 s delay (normalized to 1.5 mM singlet, %)” value was 100%; the “Z-Magnetization enhancement at 0 s delay (normalized to 1.5 mM Z-magnetization, %)” value is 100%; the T1 is recorded as 91 s; the Ts came to 137 s. Besides, in series [6] (setting [10]), the “Singlet enhancement at 0 s delay (normalized to 1.5 mM singlet, %)” value was found to be 77%; the “Z-Magnetization enhancement at 0 s delay (normalized to 1.5 mM Z-magnetization, %)” value came out at 86%; the T1 turned out to be 72 s; the Ts is on record as 58 s. Besides, in series [6] (tetrazine concentration 7.5 mM), the “Singlet enhancement at 0 s delay (normalized to 1.5 mM singlet, %)” value is reported as 56%; the “Z-Magnetization enhancement at 0 s delay (normalized to 1.5 mM Z-magnetization, %)” value was 66%; the T1 is 47 s; the Ts was 48 s. For the same compound, in series [3] (setting [11]), the “enhancement compared to that in neat methanol-d4” value was “about 30%” and the signal enhancement is reported as about 900 fold.
`[2H]c1[15n][15n]c(-c2ccccc2)[15n][15n]1` [1b, 3-Phenyl-1,2,4,5-tetrazine-6-d-1,2,4,5-^15N4]: the “relaxation constant of the scalar order of the 15N spin pairs, Ts” value in series [4] (setting [8]) was found to be 2.1 ± 0.7 min. For the same compound, the “enhancement of hyperpolarized scalar order” value in series [4] (singlet mode, 1.5 mM in methanol-d4) worked out at 2900 fold. Further, the “hyperpolarized magnetization (T1) obtainable” value in series [4] (μT fields) is reported as “not possible to create the hyperpolarized magnetization”.
As for `c1ccc(-c2nncnn2)cc1` [1c, 3-Phenyl-1,2,4,5-tetrazine], the “time until pink color completely dissipated on reaction with 2” value in series [7] is under 2 s.
Regarding `[2H]c1[15n][15n]c(-c2ccccc2)c2c1CC[C@H]1[C@@H](CO)[C@H]1CC2` [3b, (1-Phenyl-6,6a,7,7a,8,9-hexahydro-5H-cyclopropa[5,6]cycloocta[1,2-d]pyridazin-7-yl-4-d-2,3-^15N2)methanol], in series [2] (held at 0.3 mT), the “lifetime Ts of product” value turned out to be 24 ± 6 s. For the same compound, the “signal enhancement over thermal spectra, product anti-phase (singlet) signal” value in series [2] was determined as 180 fold.

Source of the values: patent US11796610B2, “Compositions as molecular tags for hyperpolarization NMR and magnetic resonance and methods of making and using same” (Duke University, priority 2018, dated 2023).
